We go through 41 molecules from patent US9790169B2, “IDO inhibitors” (BRISTOL-MYERS SQUIBB COMPANY, priority 2015, dated 2017).

The experiment deals with human IDO1 (Homo sapiens, UniProt P14902). The experiment can be described thus: Assessment of human IDO-1 inhibitory activity in HEK cells (human IDO1/HEK293 cells, kynurenine read-out with Ehrlich reagent, absorbance 490 nm). The class given is cell-based. Also on record: expressed in transfected cells. The following applies: HEK Human IDO-1 cellular assay. The procedure, abridged:
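HEK293 cells stably expressing human IDO1 were seeded at 10,000 per well in phenol red-free RPMI with 10% FBS, treated with compound for 20 h at 37 °C. Kynurenine was measured after TCA (0.2% final) and 30 min at 50 °C, using Ehrlich reagent, A490. IC50 normalised to DMSO (0%) and 500 nM reference standard (100%).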

Sequence of human IDO1 (P14902 whole entry): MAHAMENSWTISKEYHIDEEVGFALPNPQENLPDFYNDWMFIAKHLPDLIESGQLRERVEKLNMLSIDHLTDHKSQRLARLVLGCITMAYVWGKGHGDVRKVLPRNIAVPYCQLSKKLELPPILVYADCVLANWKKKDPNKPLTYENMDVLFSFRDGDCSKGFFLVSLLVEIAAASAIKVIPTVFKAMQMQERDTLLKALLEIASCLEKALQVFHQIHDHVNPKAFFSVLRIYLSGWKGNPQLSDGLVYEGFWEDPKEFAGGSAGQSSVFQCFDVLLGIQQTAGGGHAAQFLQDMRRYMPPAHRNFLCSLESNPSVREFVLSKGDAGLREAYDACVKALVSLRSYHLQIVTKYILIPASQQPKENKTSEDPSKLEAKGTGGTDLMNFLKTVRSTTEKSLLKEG

For the molecule `CCC(CC(=O)O)c1ccc(N2CCC[C@H]2C(C)(C)O)c(Nc2ccc(F)cc2)c1` (single isomer, unassigned) [Example 840], the IC50 (usually the midpoint of a concentration-inhibition curve) is < 0.05 µM.
Consider `CC[C@H](CC(=O)O)c1ccc(N2CCC[C@@H]2C(C)(C)O)c(Nc2cnc(OCC3CC3)nc2)c1` (single isomer, unassigned) [Example 842], for which the IC50 was > 0.05 µM.
Regarding `CCOc1ncc(Nc2cc(C(CC)CC(=O)O)ccc2N2CCOC[C@H]2C(C)C)cn1` (single isomer, unassigned) [Example 891], the IC50 was > 0.05 µM.
For `CCC(CC(=O)O)c1ccc(N2CCOC[C@H]2C(C)C)c(Nc2ccc3nc(C)sc3c2)c1` (single isomer, unassigned) [Example 892], the IC50 was < 0.05 µM.
The value for `CCC(CC(=O)O)c1ccc(N2CCOC[C@H]2C(C)C)c(Nc2ccc3c(c2)OC(F)(F)O3)c1` (single isomer, unassigned) [Example 893] was > 0.05 µM.
As for `CCOc1ccc(Nc2cc(C(CC)CC(=O)O)ccc2N2CCOC[C@H]2C(C)C)cc1` (single isomer, unassigned) [Example 894], the IC50 was < 0.05 µM.
In the case of `CCC(CC(=O)O)c1ccc(N2CCOC[C@H]2C(C)C)c(NC(=O)Nc2ccc(C)cc2)c1` (single isomer, unassigned) [Example 895] it was > 0.05 µM.
Turning to `CCC(CC(=O)O)c1ccc(N2CCOC[C@H]2C(C)C)c(NC(=O)Nc2ccc(Cl)cc2F)c1` (single isomer, unassigned) [Example 896], the IC50 is < 0.05 µM.
As for `CCC(CC(=O)O)c1ccc(N2CCOC[C@H]2C(C)C)c(NC(=O)Nc2ccc(OC)cc2F)c1` (single isomer, unassigned) [Example 897], the IC50 is > 0.05 µM.
Consider `CCC(CC(=O)O)c1ccc(N2CCOC[C@H]2C(C)C)c(NC(=O)Nc2cc(C)on2)c1` (single isomer, unassigned) [Example 898], for which the IC50 was > 0.05 µM.
In the case of `CCC(CC(=O)O)c1ccc(N2CCOC[C@H]2C(C)C)c(Nc2ccc(C#N)cc2)c1` (single isomer, unassigned) [Example 899] it was < 0.005 µM; in that of `CCC(CC(=O)O)c1ccc(N2CCOC[C@H]2C(C)C)c(Nc2ccc(Cl)cc2)c1` (single isomer, unassigned) [Example 900], < 0.005 µM.
In the case of `CCC(CC(=O)O)c1ccc(N2CCOC[C@H]2C(C)C)c(Nc2ccc(F)cc2)c1` (single isomer, unassigned) [Example 901] it was < 0.005 µM.
With `CCc1ccc(Nc2cc(C(CC)CC(=O)O)ccc2N2CCOC[C@H]2C(C)C)cc1` (single isomer, unassigned) [Example 902], the IC50 was < 0.005 µM.
In the case of `CCOc1ncc(Nc2cc(C(CC)CC(=O)O)ccc2N2CCOC[C@H]2C(C)C)cn1` (single isomer, unassigned) [Example 903], the IC50 was < 0.05 µM.
Take `CCC(CC(=O)O)c1ccc(N2CCOC[C@H]2C(C)C)c(Nc2ccc3c(c2)OC(F)(F)O3)c1` (single isomer, unassigned) [Example 904]: the IC50 was < 0.005 µM.
Take `CCC(CC(=O)O)c1ccc(N2CCOC[C@H]2C(C)C)c(Nc2cnc(OCC3CC3)nc2)c1` (single isomer, unassigned) [Example 905]: the 50% inhibitory concentration (IC50) was > 0.05 µM.
Regarding `CCC(CC(=O)O)c1ccc(N2CCOC[C@H]2C(C)C)c(Nc2cnc(OC)nc2)c1` (single isomer, unassigned) [Example 906], the IC50 is < 0.05 µM.
For the molecule `COCC(CC(=O)O)c1cc(F)c(N(CC(C)C)CC(C)C)c(Nc2ccc3c(c2)OC(F)(F)O3)c1` (single isomer, unassigned) [Example 927, 3-(3-((2,2-difluorobenzo[d] [1,3]dioxol-5-yl)amino)-4-(diisobutylamino)-5-fluorophenyl)-4-methoxybutanoic acid.], the IC50 was < 0.05 µM.
`Cc1ccc(CC(=O)Nc2cc(C(C)CC(=O)O)ccc2N(CC(C)C)CC(C)C)cc1` (single isomer, unassigned) [Example 953, 3-(4-(Diisobutylamino)-3-(2-(p-tolyl)acetamido)phenyl)butanoic acid]: the half-inhibitory concentration (IC50) is > 0.05 µM.
With `Cc1ccc(CC(=O)Nc2cc(C(C)CC(=O)O)ccc2N(CC(C)C)CC(C)C)cc1` (single isomer, unassigned) [Example 954, 3-(4-(Diisobutylamino)-3-(2-(p-tolyl)acetamido)phenyl)butanoic acid], the IC50 is < 0.05 µM.
In the case of `Cc1ccc(NC(=O)Nc2cc(C(C)CC(=O)O)c(F)cc2N(CC(C)C)C2CCCCC2)cc1` (single isomer, unassigned) [Example 956, 3-(4-(Cyclohexyl(isobutyl)amino)-2-fluoro-5-(3-(p-tolyl)ureido)phenyl)butanoic acid] it was < 0.005 µM; in that of `Cc1ccc(NC(=O)Nc2cc(C(C)CC(=O)O)ccc2N(CC(C)C)C2CCOCC2)cc1` (single isomer, unassigned) [Example 958, 3-(4-(Isobutyl(tetrahydro-2H-pyran-4-yl)amino)-3-(3-(p-tolyl)ureido)phenyl)butanoic acid], < 0.05 µM; in that of `CCOc1ccc(NC(=O)Nc2cc(C(C)CC(=O)O)ccc2N(CC(C)C)C2CCOCC2)cc1` (single isomer, unassigned) [Example 960, 3-(3-(3-(4-ethoxyphenyl)ureido)-4-(isobutyl(tetrahydro-2H-pyran-4-yl)amino)phenyl)butanoic acid], < 0.05 µM.
With `CC(C)CN(c1ccc(C(C)CC(=O)O)cc1NC(=O)Nc1cncnc1)C1CCOCC1` (single isomer, unassigned) [Example 961, 3-(4-(isobutyl(tetrahydro-2H-pyran-4-yl)amino)-3-(3-(pyrimidin-5-yl)ureido)phenyl)butanoic acid], the IC50 was > 0.05 µM.
Consider `CCOc1ccc(NC(=O)Nc2cc(C(C)CC(=O)O)ccc2N(CC(C)C)C2CCOCC2)cc1` (single isomer, unassigned) [Example 963, 3-(3-(3-(4-ethoxyphenyl)ureido)-4-(isobutyl(tetrahydro-2H-pyran-4-yl)amino)phenyl)butanoic acid], for which the IC50 was > 0.05 µM.
Take `Cc1ccc(CC(=O)Nc2cc(C(C)CC(=O)O)ccc2N(CC(C)C)C2CCOCC2)cc1` (single isomer, unassigned) [Example 966, 3-(4-(Isobutyl(tetrahydro-2H-pyran-4-yl)amino)-3-(2-(p-tolyl)acetamido)phenyl)butanoic acid]: the IC50 is < 0.05 µM.
With `CC(C)CN(c1ccc(C(C)CC(=O)O)cc1Nc1nc2ccccc2o1)C1CCOCC1` (single isomer, unassigned) [Example 968, 3-(3-(Benzo[d]oxazol-2-ylamino)-4-(isobutyl(tetrahydro-2H-pyran-4-yl)amino)phenyl)butanoic acid], the IC50 was < 0.05 µM.
`CC(C)CN(c1ccc(C(C)CC(=O)O)cc1Nc1nc2ccccc2o1)C1CCOCC1` (single isomer, unassigned) [Example 969, 3-(3-(Benzo[d]oxazol-2-ylamino)-4-(isobutyl(tetrahydro-2H-pyran-4-yl)amino)phenyl)butanoic acid]: the 50% inhibitory concentration (IC50) is > 0.05 µM.
For `CCC(CC(=O)O)c1cc(F)c(N(CC(C)C)CC(C)C)c(NC(=O)Cc2ccc(F)cc2F)c1` (single isomer, unassigned) [Example 1093 E1], the IC50 is < 0.005 µM.
Turning to `CCC(CC(=O)O)c1cc(F)c(N(CC(C)C)CC(C)C)c(NC(=O)Cc2ccc(F)cc2F)c1` (single isomer, unassigned) [Example 1093 E2], the 50% inhibitory concentration (IC50) was < 0.005 µM.
For `CCC(CC(=O)O)c1cc(F)c(N(CC(C)C)CC(C)C)c(NC(=O)Cc2ccc(C)cc2F)c1` (single isomer, unassigned) [Example 1094 E1], the IC50 was < 0.005 µM.
The value for `CCC(CC(=O)O)c1cc(F)c(N(CC(C)C)CC(C)C)c(NC(=O)Cc2ccc(C)cc2F)c1` (single isomer, unassigned) [Example 1094 E2] was < 0.005 µM; that for `CCC(CC(=O)O)c1ccc(N(CC(C)C)C2CCCCC2)c(NC(=O)Cc2ccc(Cl)cc2F)c1` (single isomer, unassigned) [Example 1096 E1] was < 0.005 µM.
Take `CCC(CC(=O)O)c1ccc(N(CC(C)C)C2CCCCC2)c(NC(=O)Cc2ccc(Cl)cc2F)c1` (single isomer, unassigned) [Example 1096 E2]: the IC50 was < 0.005 µM.
On to `CCC(CC(=O)O)c1ccc(N(CC(C)C)C2CCCCC2)c(NC(=O)Cc2cc(F)ccc2F)c1` (single isomer, unassigned) [Example 1098 E1], for which the IC50 was < 0.005 µM.
Take `CCC(CC(=O)O)c1ccc(N(CC(C)C)C2CCCCC2)c(NC(=O)Cc2cc(F)ccc2F)c1` (single isomer, unassigned) [Example 1098 E2]: the IC50 is < 0.005 µM.
Take `CCC(CC(=O)O)c1ccc(N(CC(C)C)CC(C)C)c(NC(=O)Cc2ccc(C)cc2)c1` (single isomer, unassigned) [Example 1103 E1, 3-(4-(Diisobutylamino)-3-(2-(p-tolyl)acetamido)phenyl)pentanoic acid]: the concentration for half-maximal inhibition (IC50) is < 0.005 µM.
In the case of `CCC(CC(=O)O)c1ccc(N(CC(C)C)CC(C)C)c(NC(=O)Cc2ccc(C#N)cc2)c1` (single isomer, unassigned) [Example 1104, 3-(3-(2-(4-Cyanophenyl)acetamido)-4-(diisobutylamino)phenyl)pentanoic acid] it was < 0.005 µM; in that of `CCC(CC(=O)O)c1cc(NC(=O)Nc2ccc(C)cc2)c(N(CC(C)C)C2CCCCC2)cc1F` (single isomer, unassigned) [Example 1106, 3-(4-(Cyclohexyl(isobutyl)amino)-2-fluoro-5-(3-(p-tolyl)ureido)phenyl)pentanoic acid], < 0.005 µM; in that of `CCOc1ccc(NC(=O)Nc2cc(C(CC)CC(=O)O)c(F)cc2N(CC(C)C)C2CCCCC2)cc1` (single isomer, unassigned) [Example 1108, 3-(4-(Cyclohexyl(isobutyl)amino)-5-(3-(4-ethoxyphenyl)ureido)-2-fluorophenyl)pentanoic acid], < 0.005 µM.
